Consider 13 compounds from patent publication US20260232642A1, “RNA-BINDING MOLECULES WITH A SMALL CORE SCAFFOLD (R-SCORE) AND USES THEREOF” (Max-Planck-Gesellschaft zur Förderung der Wissenschaften …, priority 2022, published 2026).

For one assay, the system named is Ramos cells. The assay can be described thus: MTT assay, Ramos. In kind it is cell-based, human. The settings on record: 72 h, Burkitt lymphoma cell line, read-out: Cell lines IC50 [μM] Ramos. Here is the method: (§1) MAD-MB-231, MCF-7 and JAR cells were cultured in Dulbecco's modified Eagle's (DMEM) medium supplemented with 10% Fetal Bovine Serum (FBS), 100 u/mL penicillin-streptomycin. Jurkat, Molt-4 and Ramos cells were cultured in Roswell Park Memorial Institute (RPMI) 1640 medium with 10% Fetal Bovine Serum (FBS), 100 u/mL penicillin-streptomycin. All cell lines grown in an incubator with humidified 5% CO2 at 37° C.
(§2) Jurkat, Molt-4 and Ramos cells were collected and seeded into 96-well plates at a density of 8000-10000 per well and treated with compounds. MCF-7, MDA-MB-231 and JAR cells were collected and seeded into 96-well plates at a density of 2000-3000 per well and cultured overnight to adherent before treat with compounds. After exposed to increasing concentrations of compounds for 72 h, the cells in each well were mixed with 20 μL of 5 mg/ml MTT (3-(4,5-dimethylthiazol-2-yl)-2,5-diphenyltetrazolium bromide) for 2 h, then add 50 μL of 20% SDS/0.01 M HCl incubated overnight, and detected the absorbance at a wavelength of 570 nm.
(§3) Inhibition rate was calculated using the equation: […]
(§4) The IC50 values were calculated by using GraphPad Prism 9 software fitting to a dose-response inhibition equation.
Background: Tetrazolium assays rely on reduction of a dye to a coloured formazan, in cell work by metabolically active cells.

The subject of a further assay is MCF-7 cells. Description: MTT assay, MCF-7. In kind it is cell-based, human. The conditions noted are these: breast cancer cell line, read-out: Cell lines IC50 [μM] MCF-7. On the procedure:
as §1, §2, §3, §4

For assay [1], the system named is precursor microRNA-17 hairpin (pre-miR-17 hp). The assay can be described thus: Differential scanning fluorimetry (DSF), pre-miR-17 hairpin. The settings on record: 60 uM compound, 1 μM hairpin in PBS, Tm of compound minus Tm of DMSO control. It counts as binding. On the procedure: (§5) To measure the binding between compounds and precursor microRNA-21 hairpin (pre-miR-21 hp) or precursor microRNA-17 hairpin (pre-miR-17 hp), DSF was performed as previously described with modification (ACS Chem. Biol. 2017, 12, 2, 435-443). Precursor microRNA hairpin was dissolved in PBS and annealed by briefly heating to 95° C. for 3 min and slowly cooling to rt. Assay was performed in duplicates using white qPCR 8-strips (VWR) with a total volume of 10 μL in PBS. The total reaction consisted of 1 μM precursor microRNA hairpin, 1% test compound (DMSO dilution) and 2×SYBR GreenII (Thermo Fisher Scientific). Compounds were incubated with precursor microRNA hairpin at for 10 min at rt, then SYBR GreenII was added to each well, mixed and incubated 10 min at rt. The strips were spined and loaded to the RT-PCR detection system (BIO-RAD CFX Connect), the fluorescence intensity was obtained every 1° C. for 30 s in the range of 20° C. to 80° C.
(§6) The melting temperature (Tm) was determined by the maximum of the negative of the first derivative of the fluorescence vs temperature melting curves. The ΔTm was calculated by the Tm value of compound subtract the Tm value of the DMSO control.

A further assay deals with Jurkat cells. The assay can be described thus: MTT assay, Jurkat. It counts as cell-based, human. The settings on record: 72 h, acute leukemia cell line, read-out: Cell lines IC50 [μM] Jurkat. Here is the method: as §1, §2, §3, §4
The subject of a further assay is JAR cells. The assay can be described thus: MTT assay, JAR. The conditions noted are these: 72 h, choriocarcinoma cell line, read-out: Cell lines IC50 [μM] JAR. It counts as cell-based, human. On the procedure: as §1, §2, §3, §4
Assay [2] relates to precursor microRNA-21 hairpin (pre-miR-21 hp). Description: Differential scanning fluorimetry (DSF), pre-miR-21 hairpin. In kind it is binding. The settings on record: 60 uM compound, 1 μM hairpin in PBS, Tm of compound minus Tm of DMSO control. Here is the method:
as §5, §6
On the technique in general: DSF heats the sample and reads unfolding from a dye or from intrinsic fluorescence.

The next assay deals with Molt-4 cells. Description: MTT assay, Molt-4. It counts as cell-based, human. The settings on record: acute leukemia cell line, read-out: Cell lines IC50 [μM] Molt-4. On the procedure: as §1, §2, §3, §4
A further assay relates to MDA-MB-231 cells. The assay can be described thus: MTT assay, MDA-MB-231. The settings on record: breast cancer cell line, read-out: Cell lines IC50 [μM] MDA-MB-231. In kind it is cell-based, human. Here is the method: as §1, §2, §3, §4

Read-outs that look alike come from different tables or passages of the source.

Consider `CNc1nc(N2CC(c3ccc(-c4ccc5nc[nH]c5c4)cc3)C2C#N)nc2ccccc12` (centres unmarked) [Compound B10, 3-(4-(1H-benzo[d]imidazol-6-yl)phenyl)-1-(4-(methylamino)quinazolin-2-yl) azetidine-2-carbonitrile], for which the IC50 (commonly the midpoint of a concentration-inhibition curve) in the assay on Ramos cells (Homo sapiens, Ramos) was 8.27 µM; in the assay on MCF-7 cells (72 h), 8.24 µM; in the assay on Jurkat cells it was 11.2 µM; in the assay with JAR cells, 4.78 µM; in the assay on Molt-4 cells (72 h) it was 12.1 µM; with MDA-MB-231 cells (72 h), 10.8 µM. The “ΔTm (pre-miR-17 hp) @60 uM [° C.]” value in assay [1] came to 0 °C. Besides, the “ΔTm (pre-miR-21 hp) @60 uM [° C.]” value in assay [2] was found to be 0 °C.

For the compound `N#CC1C(c2ccc(-c3ccc(C(F)(F)F)cc3)cc2)C(CO)N1C(=O)c1sc2ncccc2c1N` (centres unmarked) [Compound A3, 1-(3-aminothieno[2,3-b]pyridine-2-carbonyl)-4-(hydroxymethyl)-3-(4′-(trifluoromethyl)-[1,1′-biphenyl]-4-yl) azetidine-2-carbonitrile], the concentration for half-maximal inhibition (IC50) in the assay on Ramos cells (Homo sapiens, Ramos) came to 7.03 µM; in the assay on MCF-7 cells (Homo sapiens, MCF7, 72 h), 6.22 µM; with Jurkat cells (Homo sapiens, Jurkat) it was 3.73 µM; with JAR cells, 9.75 µM; with Molt-4 cells (72 h), 10.8 µM; in the assay with MDA-MB-231 cells (Homo sapiens, MDA-MB-231, 72 h), 18.6 µM. Moreover, the “ΔTm (pre-miR-17 hp) @60 uM [° C.]” value in assay [1] is −6.5 ± 0.5 °C. Moreover, in assay [2], the “ΔTm (pre-miR-21 hp) @60 uM [° C.]” value was −6 °C.

Consider `CCCN1C(CO)C(c2ccc(-c3ccc4nc[nH]c4c3)cc2)C1CNC(=O)c1sc2ncccc2c1N` (centres unmarked) [Compound A8, N-((3-(4-(1H-benzo[d]imidazol-6-yl)phenyl)-4-(hydroxymethyl)-1-propylazetidin-2-yl)methyl)-3-aminothieno[2,3-b]pyridine-2-carboxamide], for which the IC50 stood at 26.8 µM with Ramos cells (Homo sapiens, Ramos); 19.1 µM in the assay with Jurkat cells (Homo sapiens, Jurkat); 8.5 µM with Molt-4 cells (Homo sapiens, MOLT-4, 72 h).

Turning to `N#CC1C(c2ccc(-c3ccc(C(F)(F)F)cc3)cc2)C(CO)N1C(=O)c1sc2ncccc2c1N` (centres unmarked) [Compound A2, 1-(3-aminothieno[2,3-b]pyridine-2-carbonyl)-4-(hydroxymethyl)-3-(4′-(trifluoromethyl)-[1,1 biphenyl]-4-yl) azetidine-2-carbonitrile], the IC50 came out at 3.8 µM in the assay with Ramos cells, 3.35 µM in the assay with Jurkat cells, 3.41 µM in the assay on JAR cells and 4.61 µM in the assay with Molt-4 cells (72 h). In addition, in assay [1], the “ΔTm (pre-miR-17 hp) @60 uM [° C.]” value was −2 °C. The “ΔTm (pre-miR-21 hp) @60 uM [° C.]” value in assay [2] was −2.5 ± 0.5 °C.

With `CCCN1C(CO)C(c2ccc(-c3ccc(C(F)(F)F)cc3)cc2)C1CNC(=O)c1sc2ncccc2c1N` (centres unmarked) [Compound A4, 3-amino-N-((4-(hydroxymethyl)-1-propyl-3-(4′-(trifluoromethyl)-[1,1′-biphenyl]-4-yl)azetidin-2-yl)methyl) thieno[2,3-b]pyridine-2-carboxamide], the IC50 in the assay with MCF-7 cells (72 h) turned out to be 5.79 µM; with JAR cells, 2.3 µM; in the assay with MDA-MB-231 cells (72 h), 7.02 µM. Also, the “ΔTm (pre-miR-17 hp) @60 uM [° C.]” value in assay [1] was −1 °C. In assay [2], the “ΔTm (pre-miR-21 hp) @60 uM [° C.]” value is −2 °C.

Regarding `CNc1nc(N2CC(c3ccc(-c4c(C)noc4C)cc3)C2C#N)nc2ccccc12` (centres unmarked) [Compound B1, 3-(4-(3,5-dimethylisoxazol-4-yl)phenyl)-1-(4-(methylamino)quinazolin-2-yl) azetidine-2-carbonitrile], the IC50 in the assay on Ramos cells amounted to 7.35 µM; in the assay on MCF-7 cells (Homo sapiens, MCF7, 72 h), 9.92 µM; in the assay on Jurkat cells (Homo sapiens, Jurkat) it was 6.31 µM; in the assay on JAR cells (Homo sapiens), 1.74 µM; in the assay on Molt-4 cells (Homo sapiens, MOLT-4, 72 h), 7.01 µM; in the assay on MDA-MB-231 cells (Homo sapiens, MDA-MB-231, 72 h) it was 14.4 µM. Moreover, in assay [1], the “ΔTm (pre-miR-17 hp) @60 uM [° C.]” value came to 0 °C. Also, the “ΔTm (pre-miR-21 hp) @60 uM [° C.]” value in assay [2] came out at 0 °C.

Regarding “3-(4-(1H-benzo[d]imidazol-6-yl)phenyl)-1-(3-aminothieno[2,3-b]pyridine-2-carbonyl)-4-(hydroxymethyl)azetidine-2-carbonitrile [Compound A7]”, the IC50 in the assay with MCF-7 cells (72 h) is more than 20 µM; with JAR cells, 5.74 µM; in the assay on MDA-MB-231 cells (72 h), more than 20 µM. The “ΔTm (pre-miR-17 hp) @60 uM [° C.]” value in assay [1] was determined as 0 °C. Besides, in assay [2], the “ΔTm (pre-miR-21 hp) @60 uM [° C.]” value amounted to 0 °C.

Regarding `N#CC1C(c2ccc(-c3ccc(C(F)(F)F)cc3)cc2)C(CO)N1C(=O)c1ccc(NC(=O)c2sc3ncccc3c2N)cc1` (centres unmarked) [Compound A1, 1-(1-amino-(3-aminothieno[2,3-b]pyridine-2-carbonyl)phenyl-4-carbonyl)-4-(hydroxymethyl)-3-(4′-(trifluoromethyl)-[1,1′-biphenyl]-4-yl) azetidine-2-carbonitrile], the IC50 is 4.81 µM with Ramos cells (Homo sapiens, Ramos); 5.95 µM in the assay with MCF-7 cells (Homo sapiens, MCF7, 72 h); 2.81 µM in the assay with Jurkat cells (Homo sapiens, Jurkat); 2.95 µM with JAR cells (Homo sapiens); 2.91 µM in the assay with Molt-4 cells (Homo sapiens, MOLT-4, 72 h); 10 µM with MDA-MB-231 cells (Homo sapiens, MDA-MB-231, 72 h). The “ΔTm (pre-miR-17 hp) @60 uM [° C.]” value in assay [1] was −3 °C. Besides, the “ΔTm (pre-miR-21 hp) @60 uM [° C.]” value in assay [2] was −2 °C.

In the case of `Cc1noc(C)c1-c1ccc(C2CN(C(=O)c3sc4ncccc4c3N)C2C#N)cc1` (centres unmarked) [Compound B3, 1-(3-aminothieno[2,3-b]pyridine-2-carbonyl)-3-(4-(3,5-dimethylisoxazol-4-yl)phenyl) azetidine-2-carbonitrile], the IC50 in the assay on MCF-7 cells (72 h) came out at 5.72 µM; in the assay with JAR cells, 1.28 µM; with MDA-MB-231 cells (72 h), 12.5 µM.

For `CCCN1C(CO)C(c2ccc(-c3ccc4nc[nH]c4c3)cc2)C1CNC(=O)c1sc2ncccc2c1N` (centres unmarked) [Compound A9, N-((3-(4-(1H-benzo[d]imidazol-6-yl)phenyl)-4-(hydroxymethyl)-1-propylazetidin-2-yl)methyl)-3-aminothieno[2,3-b]pyridine-2-carboxamide], the IC50 with Ramos cells was more than 20 µM; in the assay with MCF-7 cells (Homo sapiens, MCF7, 72 h) it was more than 20 µM; in the assay on Jurkat cells it was more than 20 µM; in the assay on JAR cells (Homo sapiens), 9.56 µM; in the assay on Molt-4 cells (72 h), 11.4 µM; with MDA-MB-231 cells (Homo sapiens, MDA-MB-231, 72 h), more than 20 µM. Moreover, in assay [1], the “ΔTm (pre-miR-17 hp) @60 uM [° C.]” value worked out at 0 °C. Also, the “ΔTm (pre-miR-21 hp) @60 uM [° C.]” value in assay [2] was determined as 0 °C.

`CCCN1C(CO)C(c2ccc(-c3ccc(C(F)(F)F)cc3)cc2)C1CNC(=O)c1sc2ncccc2c1N` (centres unmarked) [Compound A5, 3-amino-N-((4-(hydroxymethyl)-1-propyl-3-(4′-(trifluoromethyl)-[1,1′-biphenyl]-4-yl)azetidin-2-yl)methyl) thieno[2,3-b]pyridine-2-carboxamide]: the IC50 is 5.05 µM with Ramos cells (Homo sapiens, Ramos); 5.13 µM in the assay with Jurkat cells (Homo sapiens, Jurkat); 5.49 µM in the assay on Molt-4 cells (Homo sapiens, MOLT-4, 72 h).

In the case of `CNc1nc(N2CC(C3(C(F)(F)F)C=CC(c4ccccc4)=CC3)C2C#N)nc2ccccc12` (centres unmarked) [Compound B6, 1-(4-(methylamino)quinazolin-2-yl)-3-(4 (trifluoromethyl)-[1,1′-biphenyl]-4-yl) azetidine-2-carbonitrile], the IC50 in the assay on Ramos cells (Homo sapiens, Ramos) was determined as 1.82 µM; in the assay with MCF-7 cells (Homo sapiens, MCF7, 72 h), 5.23 µM; with Jurkat cells (Homo sapiens, Jurkat), 5.47 µM; in the assay with JAR cells (Homo sapiens) it was 1.29 µM; in the assay on Molt-4 cells (Homo sapiens, MOLT-4, 72 h), 4.79 µM; with MDA-MB-231 cells (Homo sapiens, MDA-MB-231, 72 h), 7.07 µM. The “ΔTm (pre-miR-17 hp) @60 uM [° C.]” value in assay [1] is 1.25 °C.

With `N#CC1C(c2ccc(-c3ccc(C(F)(F)F)cc3)cc2)CN1C(=O)c1sc2ncccc2c1N` (centres unmarked) [Compound B7, 1-(3-aminothieno[2,3-b]pyridine-2-carbonyl)-3-(4′-(trifluoromethyl)-[1,1′-biphenyl]-4-yl) azetidine-2-carbonitrile], the IC50 in the assay with Ramos cells (Homo sapiens, Ramos) was 6.61 µM; in the assay with Jurkat cells (Homo sapiens, Jurkat) it was 7.42 µM; in the assay with JAR cells it was 1.16 µM; in the assay with JAR cells (Homo sapiens) it was 1.5 µM; with Molt-4 cells (Homo sapiens, MOLT-4, 72 h), 13.9 µM.
